From patent publication US11254686B1 (Corvus Pharmaceuticals, Inc., priority 2017, dated 2022)

Assays:
adenosine A2B receptor = adenosine A2B receptor (Homo sapiens (Human), UniProt P29275); assay: Adenosine receptor activity assay (Table 1), A2B activity; format: biochemical; conditions: for Ratio: A2A activity to A2B activity (A2A/A2B); for IC50: read-out: Ave A2B cAMP IC50
adenosine A1 receptor = adenosine A1 receptor (Homo sapiens (Human), UniProt P30542); assay: Adenosine receptor activity assay (Table 1), A1 cAMP; format: cell-based
adenosine A2A receptor = adenosine A2A receptor (Homo sapiens (Human), UniProt P29274); assay: Adenosine receptor activity assay (Table 1), A2A activity; format: biochemical; conditions: read-out: Ave A2A cAMP IC50
adenosine A3 receptor = adenosine A3 receptor (Homo sapiens (Human), UniProt P0DMS8); assay: Adenosine receptor activity assay (Table 1), A3 cAMP; format: cell-based
adenosine A3 receptor, sequence (P0DMS8 whole entry): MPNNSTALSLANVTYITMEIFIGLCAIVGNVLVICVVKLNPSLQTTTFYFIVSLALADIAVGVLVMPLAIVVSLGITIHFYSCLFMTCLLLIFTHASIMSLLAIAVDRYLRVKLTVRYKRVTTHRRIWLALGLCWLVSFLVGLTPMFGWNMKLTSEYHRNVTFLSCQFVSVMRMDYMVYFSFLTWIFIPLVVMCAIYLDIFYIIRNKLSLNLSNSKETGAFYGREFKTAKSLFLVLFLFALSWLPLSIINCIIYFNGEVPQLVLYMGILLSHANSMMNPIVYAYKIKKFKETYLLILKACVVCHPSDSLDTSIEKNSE

adenosine A1 receptor, sequence (P30542 whole entry): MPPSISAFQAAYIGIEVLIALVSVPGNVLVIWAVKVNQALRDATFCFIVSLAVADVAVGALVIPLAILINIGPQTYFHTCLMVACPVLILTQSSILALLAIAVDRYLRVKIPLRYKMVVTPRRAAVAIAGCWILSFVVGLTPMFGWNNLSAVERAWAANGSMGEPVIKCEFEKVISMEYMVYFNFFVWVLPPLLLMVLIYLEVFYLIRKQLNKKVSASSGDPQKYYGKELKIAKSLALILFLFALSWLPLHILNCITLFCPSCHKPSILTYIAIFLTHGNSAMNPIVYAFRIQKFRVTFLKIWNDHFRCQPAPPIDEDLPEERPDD
adenosine A2A receptor, sequence (P29274 whole entry): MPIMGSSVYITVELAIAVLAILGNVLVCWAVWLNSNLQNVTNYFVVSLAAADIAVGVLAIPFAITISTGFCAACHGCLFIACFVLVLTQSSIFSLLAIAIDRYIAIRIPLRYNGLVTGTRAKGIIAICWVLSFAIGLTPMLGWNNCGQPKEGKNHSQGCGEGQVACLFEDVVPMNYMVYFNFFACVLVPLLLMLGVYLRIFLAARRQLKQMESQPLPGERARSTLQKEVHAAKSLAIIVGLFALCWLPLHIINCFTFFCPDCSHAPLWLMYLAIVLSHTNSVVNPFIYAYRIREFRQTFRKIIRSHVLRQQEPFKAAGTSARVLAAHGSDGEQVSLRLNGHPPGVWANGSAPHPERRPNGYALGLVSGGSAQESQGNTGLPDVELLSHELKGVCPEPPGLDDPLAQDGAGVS
adenosine A2B receptor, sequence (P29275 whole entry): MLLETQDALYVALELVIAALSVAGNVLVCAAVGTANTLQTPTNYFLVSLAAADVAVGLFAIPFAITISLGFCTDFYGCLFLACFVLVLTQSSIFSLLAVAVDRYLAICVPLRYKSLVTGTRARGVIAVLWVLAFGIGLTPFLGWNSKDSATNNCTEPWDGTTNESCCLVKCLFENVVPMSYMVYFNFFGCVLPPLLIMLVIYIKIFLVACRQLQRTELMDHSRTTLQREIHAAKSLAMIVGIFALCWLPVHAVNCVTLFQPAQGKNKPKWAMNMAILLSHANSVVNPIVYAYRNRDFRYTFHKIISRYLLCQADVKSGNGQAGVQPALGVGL

SMILES	Ratio (adenosine A2B receptor)	IC50 (adenosine A2B receptor) [nM]	IC50 (adenosine A1 receptor) [nM]	IC50 (adenosine A2A receptor) [nM]	IC50 (adenosine A3 receptor) [nM]
CO[C@@H]1CCN(C(=O)c2nc(N[C@@H](C)c3cncc(F)c3)nc3cc(C)sc23)C1 [Example Z302, (2-(((S)-1-(5-Fluoropyridin-3-yl)ethyl)amino)-6-methylthieno[3,2-d]pyrimidin-4-yl)((R)-3-methoxypyrrolidin-1-yl)methanone]	35.54	< 10	> 500	50 to 100	50 to 100
C[C@H](Nc1nc(C(=O)N[C@H]2C[C@@H](O)C2)c2sccc2n1)c1cncc(Cl)c1 [Example Z305, 2-(((S)-1-(5-Chloropyridin-3-yl)ethyl)amino)-N-((1s,3R)-3-hydroxycyclobutyl)thieno[3,2-d]pyrimidine-4-carboxamide]	38.51	< 10	> 500	50 to 100	> 500
Cc1cc2nc(N[C@@H](C)c3cncc(F)c3)nc(C(=O)NCC(C)(C)O)c2s1 [Example Z308, (S)-2-((1-(5-Fluoropyridin-3-yl)ethyl)amino)-N-(2-hydroxy-2-methylpropyl)-6-methylthieno[3,2-d]pyrimidine-4-carboxamide]	29.96	< 10	50 to 100	50 to 100	50 to 100
Cc1cc2nc(N[C@@H](C)c3cncc(F)c3)nc(C(=O)N3CC[C@H](CO)C3)c2s1 [Example Z309, (2-(((S)-1-(5-Fluoropyridin-3-yl)ethyl)amino)-6-methylthieno[3,2-d]pyrimidin-4-yl)((S)-3-(hydroxymethyl)pyrrolidin-1-yl)methanone]	37.14	< 10	> 500	50 to 100	> 500
Cc1cc2nc(N[C@@H](C)c3cncc(F)c3)nc(C(=O)N3CC[C@@H](CO)C3)c2s1 [Example Z310, (2-(((S)-1-(5-Fluoropyridin-3-yl)ethyl)amino)-6-methylthieno[3,2-d]pyrimidin-4-yl)((R)-3-(hydroxymethyl)pyrrolidin-1-yl)methanone]	71.73	< 10	> 500	100 to 500	> 500
CO[C@H]1CCN(C(=O)c2nc(N[C@@H](C)c3ccccn3)nc3cc(C)sc23)C1 [Example Z311, ((S)-3-Methoxypyrrolidin-1-yl)(6-methyl-2-(((S)-1-(pyridin-2-yl)ethyl)amino)thieno[3,2-d]pyrimidin-4-yl)methanone]	3.82	10 to 50	> 500	50 to 100	50 to 100
C[C@H](Nc1nc(C(=O)N[C@@H]2CCN(C(=O)OC(C)(C)C)C2)c2sccc2n1)c1ccccn1 [Example Z326, tert-Butyl (R)-3-(2-(((S)-1-(pyridin-2-yl)ethyl)amino)thieno[3,2-d]pyrimidine-4-carboxamido)pyrrolidine-1-carboxylate]	0.54	50 to 100	> 500	10 to 50	10 to 50
C[C@H](Nc1nc(C(=O)N2CCCC2)c2sc(C(F)(F)F)cc2n1)c1cccnc1 [Example Z327, (S)-(2-((1-(Pyridin-3-yl)ethyl)amino)-6-(trifluoromethyl)thieno[3,2-d]pyrimidin-4-yl)(pyrrolidin-1-yl)methanone]	143.99	< 10	> 500	> 500	> 500
Cc1cc2nc(N[C@@H](C)c3cccnc3)nc(C(=O)NC[C@H](C)O)c2s1 [Example Z328, N—((S)-2-Hydroxypropyl)-6-methyl-2-(((S)-1-(pyridin-3-yl)ethyl)amino)thieno[3,2-d]pyrimidine-4-carboxamide]	107.75	< 10	> 500	100 to 500	50 to 100
C[C@H](Nc1nc(C(=O)N[C@H]2CC[C@@H](O)C2)c2sccc2n1)c1cncc(F)c1 [Example Z329, 2-(((S)-1-(5-Fluoropyridin-3-yl)ethyl)amino)-N-((1S,3R)-3-hydroxycyclopentyl)thieno[3,2-d]pyrimidine-4-carboxamide]	26.05	< 10	50 to 100	10 to 50	50 to 100
CC(=O)N[C@H]1CCN(C(=O)c2nc(N[C@@H](C)c3cncc(F)c3)nc3ccsc23)C1 [Example Z331, N—((S)-1-(2-(((S)-1-(5-Fluoropyridin-3-yl)ethyl)amino)thieno[3,2-d]pyrimidine-4-carbonyl)pyrrolidin-3-yl)acetamide]	61.94	< 10	> 500	100 to 500	> 500
Cc1cc2nc(N[C@@H](C)c3cccnc3)nc(C(=O)NC[C@@H](C)O)c2s1 [Example Z334, N—((R)-2-Hydroxypropyl)-6-methyl-2-(((S′)-1-(pyridin-3-yl)ethyl)amino)thieno[3,2-d]pyrimidine-4-carboxamide]	171.86	< 10	> 500	100 to 500	50 to 100
Cc1cc2nc(N[C@@H](C)c3cccnc3)nc(C(=O)N3CC[C@H](CO)C3)c2s1 [Example Z336, ((S)-3-(Hydroxymethyl)pyrrolidin-1-yl)(6-methyl-2-(((S)-1-(pyridin-3-yl)ethyl)amino)thieno[3,2-d]pyrimidin-4-yl)methanone]	136.91	< 10	> 500	> 500	> 500
C[C@H](Nc1nc(C(=O)NCC2CCOCC2)c2sccc2n1)c1cncc(F)c1 [Example Z339, (S)-2-((1-(5-Fluoropyridin-3-yl)ethyl)amino)-N-((tetrahydro-2H-pyran-4-yl)methyl)thieno[3,2-d]pyrimidine-4-carboxamide]	10.57	< 10	> 500	50 to 100	> 500
COC[C@@H](Nc1nc(C(=O)N2CCC2)c2sccc2n1)c1cccnc1 [Example Z341, (S)-Azetidin-1-yl(2-((2-methoxy-1-(pyridin-3-yl)ethyl)amino)thieno[3,2-d]pyrimidin-4-yl)methanone]	30.12	< 10	> 500	100 to 500	> 500
C[C@H](Nc1nc(C(=O)N2CC[C@H](O)C2)c2sc(C(F)(F)F)cc2n1)c1cncc(F)c1 [Example Z346, (2-(((S)-1-(5-Fluoropyridin-3-yl)ethyl)amino)-6-(trifluoromethyl)thieno[3,2-d]pyrimidin-4-yl)((S)-3-hydroxypyrrolidin-1-yl)methanone]	448.66	< 10	> 500	> 500	> 500
C[C@H](O)CNC(=O)c1nc(N[C@@H](C)c2cccnc2)nc2cc(C(F)(F)F)sc12 [Example Z347, N—((S)-2-Hydroxypropyl)-2-(((S)-1-(pyridin-3-yl)ethyl)amino)-6-(trifluoromethyl)thieno[3,2-d]pyrimidine-4-carboxamide]	98.22	10 to 50	> 500	> 500	50 to 100
